Measurements: ChEMBL document CHEMBL4130636, “Contilisant, a Tetratarget Small Molecule for Alzheimer's Disease Therapy Combining Cholinesterase, Monoamine Oxidase Inhibition, and H3R Antagonism with S1R Agonism Profile” (J Med Chem, 2018)
Values belong to the compound of their own block, whether it stands above or below them. Calls of active or inactive are those of the source. No cut-off for these calls is given here.

Assays:
[1] = target: T1, Sigma intracellular receptor 2 (Rattus norvegicus, UniProt Q5U3Y7); test: Displacement of [3H]DTG from sigma2 receptor in rat liver membranes after 60 mins by liquid scintillation counting method; assay type: cell membranes, Membrane
T1 sequence (Q5U3Y7 whole entry): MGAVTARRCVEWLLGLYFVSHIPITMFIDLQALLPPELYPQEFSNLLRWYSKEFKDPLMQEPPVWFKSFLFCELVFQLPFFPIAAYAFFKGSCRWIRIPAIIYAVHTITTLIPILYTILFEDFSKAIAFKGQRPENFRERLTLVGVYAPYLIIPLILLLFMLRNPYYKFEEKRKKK

[2] = target: T2, Vesicular acetylcholine transporter (Rattus norvegicus, UniProt Q62666); test: Displacement of (-)-[3H]vesamicol from rat VAChT expressed in rat PC12 cell membranes after 60 mins by liquid scintillation counting method
T2 sequence (Q62666 whole entry): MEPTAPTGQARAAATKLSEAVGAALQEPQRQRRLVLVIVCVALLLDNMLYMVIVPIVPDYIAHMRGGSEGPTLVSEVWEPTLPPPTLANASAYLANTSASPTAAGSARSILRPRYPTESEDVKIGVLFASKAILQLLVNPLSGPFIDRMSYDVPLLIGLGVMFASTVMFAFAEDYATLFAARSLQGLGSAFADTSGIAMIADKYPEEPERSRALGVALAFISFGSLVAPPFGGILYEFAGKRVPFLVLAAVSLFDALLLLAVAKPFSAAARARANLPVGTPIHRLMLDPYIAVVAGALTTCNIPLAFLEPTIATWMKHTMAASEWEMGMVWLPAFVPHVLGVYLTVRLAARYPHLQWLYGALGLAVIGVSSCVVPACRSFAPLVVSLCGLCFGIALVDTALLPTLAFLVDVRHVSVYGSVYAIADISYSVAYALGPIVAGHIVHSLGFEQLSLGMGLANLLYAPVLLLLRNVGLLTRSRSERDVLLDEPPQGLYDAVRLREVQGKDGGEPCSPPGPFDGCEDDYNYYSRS

Cholinesterase = Cholinesterase (Homo sapiens, UniProt P06276); test: Inhibition of human plasma BuChE using acetylthiocholine iodide as substrate by Ellman's method
Acetylcholinesterase = Acetylcholinesterase (Homo sapiens, UniProt P22303); test: Inhibition of recombinant human AChE using acetylthiocholine iodide as substrate by Ellman's method
Histamine H3 receptor = Histamine H3 receptor (Homo sapiens, UniProt Q9Y5N1); test: Displacement of [3H]-N-alpha-methylhistamine from human H3R expressed in HEK293 cell membranes after 90 mins by liquid scintillation counting method
[3] = target: Sigma non-opioid intracellular receptor 1 (Homo sapiens, UniProt Q99720); test: Displacement of (+)-[3H]pentazocine from human sigma1 receptor expressed in HEK293 cell membranes after 60 mins by liquid scintillation counting method
Mus musculus [4] = test: In vivo agonist activity at sigma1 receptor in sc dosed capsaicin-induced mechanical allodynia CD-1 mouse model assessed as decrease in paw withdrawal latency pretreated for 30 mins followed by capsaicin treatment measured after 2 hrs; assay type: functional, organism-based
Mus musculus [5] = test: Cognitive enhancing effect in Balb/c mouse assessed as protection against amyloid beta (1 to 42) oligomers-induced memory damage at 1 to 10 mg/kg, po qd via gavage for 17 days starting from 24 hrs post amyloid beta (1 to 42) oligomer treatment measured on day 14 by Y-maze test; assay type: functional, organism-based
Mus musculus [6] = test: Induction of memory damage in Balb/c mouse at 1 to 10 mg/kg, po qd via gavage for 17 measured on day 14 by Y-maze test; assay type: organism-based; details: in vivo
Mus musculus [7] = test: (§1) Cognitive enhancing effect in amyloid beta (1 to 42)-induced dementia Balb/c mouse model assessed as protection against spatial memory impairment by measuring latency to find food on second, third and fourth days of test at 1 to 10 mg/kg, po qd via gavage for 17 days starting from 24 hrs post amyloid beta (1 to 42) oligomer treatment measured on day 14 by radial arm-maze test; assay type: functional, organism-based
Mus musculus [8] = test: as §1, with “reduction in total errors” for “latency”; assay type: functional, organism-based
[9] = Selectivity ratio of Ki for sigma2 receptor in rat liver membranes to Ki for human sigma1 receptor expressed in HEK293 cell membranes; assay type: cell-based
Mus musculus [10] = test: In vivo antagonist activity at sigma1 receptor in sc dosed capsaicin-induced mechanical allodynia CD-1 mouse model assessed as increase in paw withdrawal latency pretreated for 30 mins followed by capsaicin treatment measured after 2 hrs; assay type: functional, organism-based
Mus musculus [11] = test: as §1, with “on” for “on second, third and”, “fourth day” for “fourth days”; assay type: functional, organism-based
Mus musculus [12] = test: as §1, with “reduction in total errors” for “latency”, “on” for “on second,”; assay type: functional, organism-based
Mus musculus [13] = test: Cognitive enhancing effect in Balb/c mouse assessed as protection against amyloid beta (1 to 42) oligomers-induced memory damage at 10 mg/kg, po qd via gavage for 17 days starting from 24 hrs post amyloid beta (1 to 42) oligomer treatment measured on day 14 by Y-maze test; assay type: functional, organism-based
Mus musculus [14] = test: as §1, with “on” for “on second,”, “at” for “at 1 to”; assay type: functional, organism-based
Mus musculus [15] = test: as §1, with “reduction in total errors” for “latency”, “on” for “on second,”, “at” for “at 1 to”; assay type: functional, organism-based

Chain of Sigma non-opioid intracellular receptor 1 (Q99720 whole entry): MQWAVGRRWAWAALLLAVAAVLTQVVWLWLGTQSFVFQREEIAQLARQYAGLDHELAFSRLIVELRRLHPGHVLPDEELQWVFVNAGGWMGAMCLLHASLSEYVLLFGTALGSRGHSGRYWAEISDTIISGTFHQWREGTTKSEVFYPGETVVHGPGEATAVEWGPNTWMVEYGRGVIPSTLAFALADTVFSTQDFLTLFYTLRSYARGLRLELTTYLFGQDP
Chain of Acetylcholinesterase (P22303 whole entry): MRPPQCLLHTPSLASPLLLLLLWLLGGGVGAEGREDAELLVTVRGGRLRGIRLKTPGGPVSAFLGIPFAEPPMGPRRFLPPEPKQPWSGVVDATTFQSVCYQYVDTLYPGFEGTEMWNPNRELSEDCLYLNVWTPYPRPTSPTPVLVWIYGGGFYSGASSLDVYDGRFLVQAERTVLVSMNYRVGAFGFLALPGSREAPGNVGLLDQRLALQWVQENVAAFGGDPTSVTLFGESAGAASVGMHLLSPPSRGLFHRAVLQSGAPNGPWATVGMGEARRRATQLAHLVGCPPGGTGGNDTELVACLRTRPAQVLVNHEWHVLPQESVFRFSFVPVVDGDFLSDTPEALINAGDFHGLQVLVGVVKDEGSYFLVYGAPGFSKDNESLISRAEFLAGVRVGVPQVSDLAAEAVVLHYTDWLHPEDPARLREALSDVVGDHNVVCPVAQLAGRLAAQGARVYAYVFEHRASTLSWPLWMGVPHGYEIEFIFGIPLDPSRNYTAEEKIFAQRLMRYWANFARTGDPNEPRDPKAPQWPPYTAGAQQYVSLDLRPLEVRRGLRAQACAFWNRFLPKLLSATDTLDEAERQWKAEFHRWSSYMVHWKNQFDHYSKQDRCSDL
Chain of Histamine H3 receptor (Q9Y5N1 whole entry): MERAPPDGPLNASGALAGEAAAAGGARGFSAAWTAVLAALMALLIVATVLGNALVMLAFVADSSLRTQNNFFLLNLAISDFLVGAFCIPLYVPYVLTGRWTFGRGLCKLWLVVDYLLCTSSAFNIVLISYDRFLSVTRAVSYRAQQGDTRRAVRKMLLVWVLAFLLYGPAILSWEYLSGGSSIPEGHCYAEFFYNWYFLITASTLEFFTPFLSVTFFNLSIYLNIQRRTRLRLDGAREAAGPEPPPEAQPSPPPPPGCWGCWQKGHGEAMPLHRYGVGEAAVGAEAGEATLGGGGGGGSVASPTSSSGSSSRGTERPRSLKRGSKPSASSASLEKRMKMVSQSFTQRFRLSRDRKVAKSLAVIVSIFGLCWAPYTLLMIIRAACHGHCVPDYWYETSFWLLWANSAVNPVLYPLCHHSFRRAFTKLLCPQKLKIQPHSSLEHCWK
Chain of Cholinesterase (P06276 whole entry): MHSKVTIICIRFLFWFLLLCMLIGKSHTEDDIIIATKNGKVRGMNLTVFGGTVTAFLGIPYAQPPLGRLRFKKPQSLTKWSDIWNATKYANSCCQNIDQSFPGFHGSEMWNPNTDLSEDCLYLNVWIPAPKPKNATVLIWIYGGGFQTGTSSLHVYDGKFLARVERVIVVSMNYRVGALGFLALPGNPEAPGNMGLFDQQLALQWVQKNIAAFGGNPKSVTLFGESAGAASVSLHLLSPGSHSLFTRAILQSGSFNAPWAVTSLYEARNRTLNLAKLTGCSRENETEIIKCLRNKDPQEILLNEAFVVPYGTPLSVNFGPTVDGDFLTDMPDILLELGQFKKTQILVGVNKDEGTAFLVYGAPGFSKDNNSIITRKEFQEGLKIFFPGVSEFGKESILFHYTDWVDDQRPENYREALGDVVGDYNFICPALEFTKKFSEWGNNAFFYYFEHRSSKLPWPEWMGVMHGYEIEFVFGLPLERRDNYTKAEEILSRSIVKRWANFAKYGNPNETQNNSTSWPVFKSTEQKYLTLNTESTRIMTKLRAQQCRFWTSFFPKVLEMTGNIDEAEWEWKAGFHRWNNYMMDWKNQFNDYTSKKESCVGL

Ki [1]: 62.2 nM
Ki [2]: 492 nM
Structure (SMILES): COc1ccc(CCN2CCN(CCCc3ccccc3)CC2)cc1OC [[11C]SA4503]

Structure (SMILES): OC1CCCCC1N1CCC(c2ccccc2)CC1 (racemic)
Ki [1]: 63.4 nM

Structure (SMILES): C#CCN(C)Cc1cc2cc(OCCCN3CCCCC3)ccc2n1C
IC50 (Cholinesterase): 1690 nM
IC50 (Acetylcholinesterase): 530 nM
Ki (Histamine H3 receptor): 10.8 nM
Ki [3]: 65.2 nM
Ki [1]: 326 nM
Ki [2]: 46.3 nM
Activity (Mus musculus [4]): Dose-dependent effect
Activity (Mus musculus [5]): Active
Activity (Mus musculus [6]): Non-Toxic
Activity (Mus musculus [7]): Active
Activity (Mus musculus [8]): Active

Ki [3]: 2.83 nM
Ki [1]: 50.3 nM
Ki [2]: 2.58 nM
Structure (SMILES): C#CCN(C)Cc1cc2cc(OCCCC3CCN(Cc4ccccc4)CC3)ccc2n1C
Ratio Ki [9]: 18
inhibition (Mus musculus [10]): Dose-dependent effect
Activity (Mus musculus [5]): Active
Activity (Mus musculus [11]): Active
Activity (Mus musculus [12]): Active

Structure (SMILES): COc1cc2c(cc1OC)C(=O)C(CC1CCN(Cc3ccccc3)CC1)C2 (stereo not given)
Activity (Mus musculus [13]): Active
Activity (Mus musculus [14]): Active
Activity (Mus musculus [15]): Active
